Measured values reported in ChEMBL document CHEMBL3879896.

Tests used:
[1] = biological target: T1, Enoyl-[acyl-carrier-protein] reductase [NADH] (Mycobacterium tuberculosis) (UniProt P9WGR1); test: Inhibition of Mycobacterium tuberculosis InhA using octenoyl-CoA as substrate assessed as decrease in NADH consumption at 40 uM measured for 10 mins relative to control
T1 sequence (whole entry): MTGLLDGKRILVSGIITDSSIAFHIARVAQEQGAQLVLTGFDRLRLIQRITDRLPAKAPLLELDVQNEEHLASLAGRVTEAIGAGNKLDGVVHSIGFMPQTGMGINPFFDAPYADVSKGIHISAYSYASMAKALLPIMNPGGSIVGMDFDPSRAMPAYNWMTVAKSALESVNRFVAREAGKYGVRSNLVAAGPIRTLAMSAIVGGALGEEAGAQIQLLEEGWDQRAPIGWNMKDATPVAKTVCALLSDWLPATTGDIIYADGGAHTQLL

[2] = Cytotoxicity against human lung cells; format: cell-based
[3] = Cytotoxicity against mouse embryonic stem cells; format: cell-based; settings: embryonic stem cell
[4] = Cytotoxicity against human kidney cells; format: cell-based

| Structure (SMILES) | inhibition [1] | further results |
| --- | --- | --- |
| O=[N+]([O-])c1cc(Cl)ccc1-c1cnn(-c2nccc(C(F)(F)F)n2)c1 | 82% | – |
| CC(C)=CCC/C(C)=C/CNC(=O)CCc1c[nH]c2ccccc12 | 73% | Activity [2]: 11 to 48 µM; Activity [3]: 11 to 90 µM; Activity [4]: 41 to 62 µM |
| O=C(Cc1ccccc1F)NCCO | 34% | – |
| CC(C)C1C2CCC(NC(=O)CCc3c[nH]c4ccccc34)C1C2 (stereo unspecified) | 28% | – |
| COc1cc(CCNC(=O)CCCc2c[nH]c3ccccc23)cc(OC)c1 | 21% | – |
| O=C(c1ccc2[nH]ccc2c1)N1CCN(C2c3ccccc3-c3ccccc32)CC1 | – | Activity [2]: 24 to 48 µM; Activity [3]: 46 to 52 µM; Activity [4]: 35 to 44 µM |
| O=C(c1ccc2[nH]ccc2c1)N1CCc2ccccc2C1 | 86% | – |
| FC(F)(F)c1ccnc(-n2cc(-c3ccc4ccccc4n3)cn2)n1 | 16% | – |
| O=C(Cc1ccccc1F)NCCc1cccc(Cl)c1 | 84% | – |
| O=C(c1ccc(-c2ccccc2)cc1)N1CCN(Cc2ccccc2)CC1 | 27% | – |
| O=C(CCCc1c[nH]c2ccccc12)NCc1ccc2c(c1)OCO2 | 37% | – |
| FC(F)(F)c1ccnc(-n2cc(-c3nc4ccccc4[nH]3)cn2)n1 | 36% | – |
| COc1ccc(-c2cnn(-c3nccc(C(F)(F)F)n3)c2)cc1 | 4% | – |
| O=C(c1ccc2[nH]ccc2c1)N1CCN(Cc2ccc3c(c2)OCO3)CC1 | 51% | – |
| FC(F)(F)c1ccnc(-n2cc(-c3ccncn3)cn2)n1 | 36% | – |
| COc1ccc(CCNC(=O)Cc2ccccc2F)cc1 | 63% | – |
| O=C(c1ccc(-c2ccccc2)cc1)N1CCc2ccccc2C1 | 27% | – |
| O=C(c1ccc2[nH]ccc2c1)N1CCN(Cc2ccccc2)CC1 | 62% | – |
| FC(F)(F)c1ccnc(-n2cc(-c3ccnc4ccccc34)cn2)n1 | 9% | – |
| O=C(Cc1ccccc1F)NCCc1c[nH]c2ccccc12 | 47% | – |
| Cc1c(C)c(C)c(C(=O)C2CCN(C(=O)c3ccc4[nH]ccc4c3)CC2)c(C)c1C | 78% | – |
| O=[N+]([O-])c1ccccc1-c1cnn(-c2nccc(C(F)(F)F)n2)c1 | 14% | – |
| O=C(CCCc1c[nH]c2ccccc12)Nc1ccc(N2CCCC2)cc1 | 28% | – |
| CC1CN(C(=O)c2ccc3[nH]ccc3c2)CC(C)O1 (stereo unspecified) | 47% | – |
| CC(C)=CCC/C(C)=C/CNC(=O)CCCc1c[nH]c2ccccc12 | 51% | – |

| Structure (SMILES) | inhibition [1] | further results |
| --- | --- | --- |
| CCCC(=O)C1(c2ccccc2)CCN(C(=O)c2ccc3[nH]ccc3c2)CC1 | – | Activity [2]: 33 to 50 µM; Activity [3]: 46 to 50 µM; Activity [4]: 23 to 48 µM |
| CN(CCc1ccccc1)C(=O)c1ccc(-c2ccccc2)cc1 | 32% | – |
| CC(C)C1C2CCC(NC(=O)CCCc3c[nH]c4ccccc34)C1C2 (stereo unspecified) | 34% | – |
| O=C(c1ccc2[nH]ccc2c1)N1CCN(c2ccc(F)cc2)CC1 | 53% | – |
| CN(Cc1ccccc1)C(=O)c1ccc(-c2ccccc2)cc1 | 44% | – |
| FC(F)(F)c1ccnc(-n2cc(-c3cnccn3)cn2)n1 | 9% | – |
| FC(F)(F)c1ccnc(-n2cc(-c3cnc4ccccc4n3)cn2)n1 | 36% | – |
| O=C(Cc1ccccc1F)NCCC1=CCCCC1 | 56% | – |
| COc1cc2c(cc1OC)CN(C(=O)c1ccc3[nH]ccc3c1)CC2 | 86% | – |
| O=C(c1ccc2[nH]ccc2c1)N1CCN(c2ccccn2)CC1 | 36% | – |
| CS(=O)(=O)c1ccc(-c2cnn(-c3nccc(C(F)(F)F)n3)c2)c([N+](=O)[O-])c1 | 10% | – |
| O=C(Cc1ccccc1F)NCCc1ccccc1 | 45% | – |
| CN(Cc1ccco1)C(=O)c1ccc(-c2ccccc2)cc1 | 29% | – |
| O=C(c1ccc(F)cc1)C1CCN(C(=O)c2ccc3[nH]ccc3c2)CC1 | 84% | – |
| O=C(c1ccc2[nH]ccc2c1)N1CCN(c2ccccc2)CC1 | 73% | – |
| COc1ccccc1N1CCN(C(=O)c2ccc3[nH]ccc3c2)CC1 | 78% | – |
| FC(F)(F)c1ccnc(-n2cc(-c3cccnc3)cn2)n1 | 36% | – |
| O=C(Cc1ccccc1F)NCCC(c1ccccc1)c1ccccc1 | 63% | – |
| FC(F)(F)c1ccnc(-n2cc(-c3ccc(Cl)cc3)cn2)n1 | 8% | – |
| O=C(c1ccc2[nH]ccc2c1)N1CCN(C(c2ccccc2)c2ccccc2)CC1 | 106% | – |
| O=C(c1cccnc1)c1ccc2[nH]ccc2c1 | 36% | – |
| COc1ccc([N+](=O)[O-])c(-c2cnn(-c3nccc(C(F)(F)F)n3)c2)c1 | 17% | – |
| O=C(Cc1ccccc1F)NCc1cccc(Cl)c1 | 75% | – |
| O=C(Nc1ccc2ccccc2n1)c1ccc2[nH]ccc2c1 | 16% | – |
